Laboratory results taken from patent US10294202B2, “Pyrrolidinones as herbicides” (FMC Corporation, priority 2013, dated 2019).

Tests used:
barnyardgrass = assay: Test A pre-/postemergence herbicide test; assay type: in vivo, Echinochloa crus-galli
Summary of the method: (§1)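 Greenhouse pot test with pre- and postemergence application of surfactant-containing solvent formulations. Postemergence plants were 2–10 cm, one- to two-leaf stage. Response scored visually after ~10 days, 0 (no effect) to 100 (complete control).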

giant foxtail = assay: Test A pre-/postemergence herbicide test; assay type: in vivo, Setaria faberii
Summary of the method: as §1

pigweed = assay: Test A pre-/postemergence herbicide test; assay type: in vivo, Amaranthus retroflexus
Summary of the method: as §1

corn = assay: Test A pre-/postemergence herbicide test; assay type: in vivo, Zea mays; conditions: Postemergence
Summary of the method: as §1

rice = assay: Test B flooded paddy test; assay type: in vivo, Oryza sativa; conditions: 500 g ai/ha, Flood; scale of 0 to 100 where 0 is no effect and 100 is complete control
Summary of the method: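 Plants grown to 2-leaf stage; pots flooded 3 cm above soil and compound applied directly into paddy water, depth held throughout. Visual rating against untreated controls after 13 to 15 days in greenhouse, 0 (no effect) to 100 (complete control).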

blackgrass = assay: Test C pre-/postemergence herbicide test; assay type: in vivo, Alopecurus myosuroides
Summary of the method: (§2)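 Greenhouse pots; formulation = non-phytotoxic solvent mix + surfactant. PRE onto seeds in loam:sand; POST at 1–4 leaves (2–18 cm) in peat moss/vermiculite medium. Read-out: visual % control vs untreated, day 13–15.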

foxtail, giant = assay: Test C pre-/postemergence herbicide test; assay type: in vivo, Setaria faberii
Summary of the method: as §2

johnsongrass = assay: Test C pre-/postemergence herbicide test; assay type: in vivo, Sorghum halepense
Summary of the method: as §2

nutsedge, yellow = assay: Test C pre-/postemergence herbicide test; assay type: in vivo, Cyperus esculentus
Summary of the method: as §2

oilseed rape = assay: Test C pre-/postemergence herbicide test; assay type: in vivo, Brassica napus
Summary of the method: as §2

velvetleaf = assay: Test C pre-/postemergence herbicide test; assay type: in vivo, Abutilon theophrasti
Summary of the method: as §2

[1] = Postemergence, 125 g ai/ha, visual rating on 0 to 100 scale (0 no effect, 100 complete control), approx. 10 days
[2] = Postemergence, 500 g ai/ha, 0 to 100 scale (0 no effect, 100 complete control)
[3] = Preemergence, 125 g ai/ha, 0 to 100 scale where 0 is no effect and 100 is complete control
[4] = Preemergence, 500 g ai/ha, visual rating on 0 to 100 scale (0 no effect, 100 complete control)
[5] = 125 g ai/ha, visual rating on 0 to 100 scale (0 no effect, 100 complete control), approx. 10 days
[6] = 500 g ai/ha, 0 to 100 scale (0 no effect, 100 complete control)
[7] = Postemergence, 31 g ai/ha, scale 0 to 100 (0 no effect, 100 complete control)
[8] = Postemergence, 62 g ai/ha, scale 0 (no effect) to 100 (complete control)
[9] = Postemergence, 125 g ai/ha, scale 0 to 100 (0 no effect, 100 complete control)
[10] = Postemergence, 250 g ai/ha, scale 0 to 100 (0 no effect, 100 complete control)
[11] = Preemergence, 31 g ai/ha, scale 0 to 100, 0 is no effect and 100 is complete control
[12] = Preemergence, 62 g ai/ha, scale 0 to 100 (0 no effect, 100 complete control)
[13] = Preemergence, 125 g ai/ha, scale 0 to 100

Cc1cccc(NC(=O)C2C(=O)NCC2c2cccc(C(F)(F)F)c2)c1 (centres unmarked) [Compound 317]
Plant response rating, Barnyardgrass (barnyardgrass; [1]): 80
Plant response rating, Barnyardgrass (barnyardgrass; [2]): 90
Plant response rating, Barnyardgrass (barnyardgrass; [3]): 90
Barnyardgrass plant response rating (barnyardgrass; [4]): 90
Plant response rating, Foxtail, Giant (giant foxtail; [1]): 80
Plant response rating, Foxtail, Giant (giant foxtail; [2]): 90
Plant response rating, Foxtail, Giant (giant foxtail; [3]): 90
Foxtail, Giant plant response rating (giant foxtail; [4]): 90
Plant response rating, Pigweed (pigweed; [1]): 0
Plant response rating, Pigweed (pigweed; [2]): 0
Plant response rating, Pigweed (pigweed; [3]): 0
Pigweed plant response rating (pigweed; [4]): 0
Plant response rating, Corn (corn; [5]): 0
Plant response rating, Corn (corn; [6]): 20
Plant response rating, Rice (rice): 0
Plant response rating, Blackgrass (blackgrass; [7]): 0
Plant response rating, Blackgrass (blackgrass; [8]): 0
Plant response rating, Blackgrass (blackgrass; [9]): 0
Plant response rating, Blackgrass (blackgrass; [10]): 0
Blackgrass plant response rating (blackgrass; [11]): 0
Blackgrass plant response rating (blackgrass; [12]): 40
Plant response rating, Blackgrass (blackgrass; [13]): 50
Plant response rating (scale of 0 to 100), Blackgrass (blackgrass; Preemergence, 250 g ai/ha): 50
Plant response rating, Foxtail, Giant (foxtail, giant; [7]): 0
Plant response rating, Foxtail, Giant (foxtail, giant; [8]): 0
Plant response rating, Foxtail, Giant (foxtail, giant; [9]): 0
Plant response rating, Foxtail, Giant (foxtail, giant; [10]): 50
Foxtail, Giant plant response rating (foxtail, giant; [11]): 80
Foxtail, Giant plant response rating (foxtail, giant; [12]): 90
Plant response rating, Foxtail, Giant (foxtail, giant; [13]): 90
Plant response rating (scale of 0 to 100), Foxtail, Giant (foxtail, giant; Preemergence, 250 g ai/ha): 95
Plant response rating, Johnsongrass (johnsongrass; [7]): 0
Plant response rating, Johnsongrass (johnsongrass; [8]): 0
Plant response rating, Johnsongrass (johnsongrass; [9]): 0
Plant response rating, Johnsongrass (johnsongrass; [10]): 5
Johnsongrass plant response rating (johnsongrass; [11]): 0
Johnsongrass plant response rating (johnsongrass; [12]): 0
Plant response rating, Johnsongrass (johnsongrass; [13]): 0
Plant response rating (scale of 0 to 100), Johnsongrass (johnsongrass; Preemergence, 250 g ai/ha): 30
Plant response rating, Nutsedge, Yellow (nutsedge, yellow; [7]): 0
Plant response rating, Nutsedge, Yellow (nutsedge, yellow; [8]): 0
Plant response rating, Nutsedge, Yellow (nutsedge, yellow; [9]): 0
Plant response rating, Nutsedge, Yellow (nutsedge, yellow; [10]): 0
Nutsedge, Yellow plant response rating (nutsedge, yellow; [11]): 0
Nutsedge, Yellow plant response rating (nutsedge, yellow; [12]): 0
Plant response rating, Nutsedge, Yellow (nutsedge, yellow; [13]): 20
Plant response rating (scale of 0 to 100), Nutsedge, Yellow (nutsedge, yellow; Preemergence, 250 g ai/ha): 70
Plant response rating, Oilseed Rape (oilseed rape; [7]): 0
Plant response rating, Oilseed Rape (oilseed rape; [8]): 0
Plant response rating, Oilseed Rape (oilseed rape; [9]): 0
Plant response rating, Oilseed Rape (oilseed rape; [10]): 0
Oilseed Rape plant response rating (oilseed rape; [11]): 0
Oilseed Rape plant response rating (oilseed rape; [12]): 0
Plant response rating, Oilseed Rape (oilseed rape; [13]): 0
Plant response rating (scale of 0 to 100), Oilseed Rape (oilseed rape; Preemergence, 250 g ai/ha): 0
Plant response rating, Velvetleaf (velvetleaf; [7]): 0
Plant response rating, Velvetleaf (velvetleaf; [8]): 0
Plant response rating, Velvetleaf (velvetleaf; [9]): 0
Plant response rating, Velvetleaf (velvetleaf; [10]): 0
Velvetleaf plant response rating (velvetleaf; [12]): 0
Plant response rating, Velvetleaf (velvetleaf; [13]): 0

O=C1NCC(c2cccc(OC(F)F)c2)C1C(=O)Nc1cccc(F)c1F (centres unmarked) [Compound 324]
Plant response rating, Barnyardgrass (barnyardgrass; [1]): 90
Plant response rating, Barnyardgrass (barnyardgrass; [2]): 90
Plant response rating, Barnyardgrass (barnyardgrass; [3]): 90
Barnyardgrass plant response rating (barnyardgrass; [4]): 90
Plant response rating, Foxtail, Giant (giant foxtail; [1]): 90
Plant response rating, Foxtail, Giant (giant foxtail; [2]): 90
Plant response rating, Foxtail, Giant (giant foxtail; [3]): 90
Foxtail, Giant plant response rating (giant foxtail; [4]): 90
Plant response rating, Pigweed (pigweed; [1]): 40
Plant response rating, Pigweed (pigweed; [2]): 70
Plant response rating, Pigweed (pigweed; [3]): 30
Pigweed plant response rating (pigweed; [4]): 60
Plant response rating, Corn (corn; [5]): 50
Plant response rating, Corn (corn; [6]): 90
Plant response rating, Rice (rice): 30
Plant response rating, Blackgrass (blackgrass; [7]): 0
Plant response rating, Blackgrass (blackgrass; [8]): 0
Plant response rating, Blackgrass (blackgrass; [9]): 0
Plant response rating, Blackgrass (blackgrass; [10]): 0
Blackgrass plant response rating (blackgrass; [11]): 100
Blackgrass plant response rating (blackgrass; [12]): 30
Plant response rating, Blackgrass (blackgrass; [13]): 70
Plant response rating (scale of 0 to 100), Blackgrass (blackgrass; Preemergence, 250 g ai/ha): 95
Plant response rating, Foxtail, Giant (foxtail, giant; [7]): 0
Plant response rating, Foxtail, Giant (foxtail, giant; [8]): 10
Plant response rating, Foxtail, Giant (foxtail, giant; [9]): 75
Plant response rating, Foxtail, Giant (foxtail, giant; [10]): 60
Foxtail, Giant plant response rating (foxtail, giant; [11]): 90
Foxtail, Giant plant response rating (foxtail, giant; [12]): 90
Plant response rating, Foxtail, Giant (foxtail, giant; [13]): 95
Plant response rating (scale of 0 to 100), Foxtail, Giant (foxtail, giant; Preemergence, 250 g ai/ha): 95
Plant response rating, Johnsongrass (johnsongrass; [7]): 0
Plant response rating, Johnsongrass (johnsongrass; [8]): 0
Plant response rating, Johnsongrass (johnsongrass; [9]): 0
Plant response rating, Johnsongrass (johnsongrass; [10]): 10
Johnsongrass plant response rating (johnsongrass; [11]): 40
Johnsongrass plant response rating (johnsongrass; [12]): 65
Plant response rating, Johnsongrass (johnsongrass; [13]): 80
Plant response rating (scale of 0 to 100), Johnsongrass (johnsongrass; Preemergence, 250 g ai/ha): 85
Plant response rating, Nutsedge, Yellow (nutsedge, yellow; [7]): 0
Plant response rating, Nutsedge, Yellow (nutsedge, yellow; [8]): 0
Plant response rating, Nutsedge, Yellow (nutsedge, yellow; [9]): 0
Plant response rating, Nutsedge, Yellow (nutsedge, yellow; [10]): 0
Nutsedge, Yellow plant response rating (nutsedge, yellow; [11]): 0
Nutsedge, Yellow plant response rating (nutsedge, yellow; [12]): 0
Plant response rating, Nutsedge, Yellow (nutsedge, yellow; [13]): 0
Plant response rating (scale of 0 to 100), Nutsedge, Yellow (nutsedge, yellow; Preemergence, 250 g ai/ha): 35
Plant response rating, Oilseed Rape (oilseed rape; [7]): 0
Plant response rating, Oilseed Rape (oilseed rape; [8]): 0
Plant response rating, Oilseed Rape (oilseed rape; [9]): 0
Plant response rating, Oilseed Rape (oilseed rape; [10]): 0
Oilseed Rape plant response rating (oilseed rape; [11]): 0
Oilseed Rape plant response rating (oilseed rape; [12]): 70
Plant response rating, Oilseed Rape (oilseed rape; [13]): 85
Plant response rating (scale of 0 to 100), Oilseed Rape (oilseed rape; Preemergence, 250 g ai/ha): 90
Plant response rating, Velvetleaf (velvetleaf; [7]): 0
Plant response rating, Velvetleaf (velvetleaf; [8]): 55
Plant response rating, Velvetleaf (velvetleaf; [9]): 50
Plant response rating, Velvetleaf (velvetleaf; [10]): 55
Velvetleaf plant response rating (velvetleaf; [12]): 35
Plant response rating, Velvetleaf (velvetleaf; [13]): 40
